# Assay results from US20120122931A1, “INDOLE DERIVATIVE OR PHARMACEUTICALLY ACCEPTABLE SALT THEREOF” (KISSEI PHARMACEUTICAL CO., LTD., priority 2009, published 2012).
# Biological target: T1, rat EP1 receptor (Rattus norvegicus, UniProt P70597)
# T1 construct: expressed in transfected cells; host or cells: COS-1 cells, transient transfection with Lipofectamine 2000
# T1 sequence (P70597 1-405): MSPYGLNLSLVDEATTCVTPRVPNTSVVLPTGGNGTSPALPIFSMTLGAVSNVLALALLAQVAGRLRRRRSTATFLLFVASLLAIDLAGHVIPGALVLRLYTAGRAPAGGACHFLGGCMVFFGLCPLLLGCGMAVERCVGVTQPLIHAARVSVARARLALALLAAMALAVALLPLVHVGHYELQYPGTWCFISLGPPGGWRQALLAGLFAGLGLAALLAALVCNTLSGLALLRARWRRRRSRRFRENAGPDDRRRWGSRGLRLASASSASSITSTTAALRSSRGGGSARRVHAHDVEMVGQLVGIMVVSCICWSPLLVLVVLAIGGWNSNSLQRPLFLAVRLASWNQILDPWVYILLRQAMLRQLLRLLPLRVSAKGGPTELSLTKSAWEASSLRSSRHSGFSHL
# Test: Test for confirmation of EP1 receptor antagonism: inhibition of prostaglandin E2-induced increase in intracellular calcium concentration (Method A or Method B)
# Format: cell-based
# Conditions: Method A (Fluo-4 NW, FlexStation); rat EP1 receptor-expressing cells; prostaglandin E2 10 nM
# Experimental: (1) Preparation of Rat EP1 Expression vector
# Using Rat Kidney BD Marathon-Ready cDNA (Nippon Becton Dickinson Company, Ltd.) as a template, a forward primer shown in SEQ ID NO. 1, and a reverse primer shown in SEQ ID NO. 2, a first run of PCR was carried out using KOD-Plus-Ver 2.0 (Toyobo Co., Ltd.). Further, using this amplification product as a template, a forward primer shown in SEQ ID NO. 3, and a reverse primer shown in SEQ ID NO. 4, a second run of PCR was carried out in the same manner. The amplification product obtained by the second run of PCR was incorporated into a vector (pcDNA3.1 D/V5-His-TOPO (registered trademark), Invitrogen Japan K. K.). By a conventional method, the vector containing this amplification product was introduced to E. coli (One Shot TOP10 Competent Cells, Invitrogen Corporation) to transform. This transformed E. coli was cultured in an LB agar medium for one day. After the culture, colonies were selected and cultured in an LB liquid medium containing 50 μg/mL of ampicillin. After the culture, the vector was purified using a QIAprep Spin Miniprep Kit (Qiagen K. K.). The base sequence of the insertion site of this vector (SEQ ID NO. 5) was compared with the rat EP1 base sequence (Ptger1) registered as an accession number NM_013100 in well-known database (NCBI), and as a result, they all matched except for a single base. Further, the amino acid sequence translated by the base sequence completely matched the amino acid sequence of the rat EP1 receptor registered as an NCBI accession number NP_037232. Therefore, it was confirmed that the cloned gene sequence was a base sequence of the rat EP1 receptor and the obtained amino acid sequence was that of the rat EP1 receptor. The pcDNA3.1 D/V5-His-TOPO (registered trademark) to which the nucleic acid shown in SEQ ID NO. 5 had been inserted was taken as a rat EP1-expressing vector.
# (2) Preparation of Rat EP1 Receptor-Expressing Cells
# COS-1 cells (Dainippon Sumitomo Pharma Co., Ltd.) were cultured until it reached confluence in an incubator at 37° C. under a 5% CO2 gas condition, using a D-MEM liquid medium (high glucose and L-glutamine contained, Invitrogen Corporation) to which a penicillin-streptomycin solution (Invitrogen Corporation, final concentration: 100 U/mL as benzylpenicillin; 100 μg/mL as streptomycin) as an antibiotic, MEM nonessential amino acids (Invitrogen Corporation, final Concentration: 0.1 mM), and fetal calf serum (Sanko Junyaku Co., Ltd., final concentration: 10%) were added.
# (2-2) COS-1 Cell Subculture
# The cells that had reached confluence were stripped with 0.05% trypsin/0.53 mM EDTA 4Na (Invitrogen Japan K. K.) and resuspended in the above liquid medium. The resuspended cells were diluted and cultured in the above liquid medium at a spread ratio from 1:4 to 1:8.
# (2-3) Preparation of Cells for Introduction of Rat EP1-Expressing Vector
# The cells that had reached confluence were stripped with 0.05% trypsin/0.53 mM EDTA.4Na, and resuspended in a D-MEM liquid medium (high glucose and L-glutamine contained, Invitrogen Corporation) to which an MEM nonessential amino acid (final concentration: 0.1 mM) and fetal calf serum (final concentration: 10%) were added. In each well of a Poly D-lysine-coated 96-well microplate (BD BioCoat (registered trademark), Nippon Becton Dickinson Company, Ltd.), this resuspended cell suspension culture was prepared to be 5×10^4 cells/well in 100 μL of the liquid medium, and seeded thereon. After seeding, the cells were cultured in an incubator at 37° C. under a 5% CO2 gas condition. At a point when the cells for introduction of a rat EP1-expressing vector were adhered (about 2 hours after seeding), introduction of the rat EP1-expressing vector was carried out in the following order.
# (2-4) Introduction of Rat EP1-Expressing Vector
# For introduction of the rat EP1-expressing vector, Lipofectamine 2000 (Invitrogen Japan K. K.) was used. […]
row,Structure (SMILES),IC50 [nM]
1,CCc1ccc2c(Cc3cccc(C(=O)O)n3)c(-c3ccccc3)[nH]c2c1 [Example 4-27],28
2,"COc1ccc2c(Cc3cccc(C(=O)O)n3)c(-c3cccc(Cl)c3)[nH]c2c1 [Example 11-21, 6-[2-(3-chlorophenyl)-6-methoxy-1H-indol-3-ylmethyl]pyridine-2-carboxylic acid]",23
3,"O=C(O)c1cccc(Cc2c(-c3ccccc3)[nH]c3cc(Cl)ccc23)n1 [Example 4-17, 6-(6-chloro-2-phenyl-1H-indol-3-ylmethyl)pyridine-2-carboxylic acid]",15
4,"Cc1ccc2c(Cc3cccc(C(=O)O)n3)c(-c3ccccc3)[nH]c2c1 [Example 4-35, 6-(6-methyl-2-phenyl-1H-indol-3-ylmethyl)pyridine-2-carboxylic acid]",18
5,"COc1ccc2c(Cc3cccc(C(=O)O)c3)c(-c3ccsc3)[nH]c2c1 [Example 4-12, 3-(6-methoxy-2-thiophen-3-yl-1H-indol-3-ylmethyl)benzoic acid]",40

# Same assay, conditions: Method B (Calcium kit II Fluo 4, FDSS 7000); rat EP1 receptor-expressing cells; prostaglandin E2 10 nM
row,Structure (SMILES),IC50 [nM]
1,"CCOc1ccc2c(Cc3cccc(C(=O)O)n3)c(-c3ccc(F)cc3)[nH]c2c1 [Example 16-60, 6-[6-ethoxy-2-(4-fluorophenyl)-1H-indol-3-ylmethyl]pyridine-2-carboxylic acid]",32
2,"COc1cc2[nH]c(-c3ccccc3)c(Cc3cccc(C(=O)O)n3)c2cc1C [Example 16-12, 6-(6-methoxy-5-methyl-2-phenyl-1H-indol-3-ylmethyl)pyridine-2-carboxylic acid]",23
3,O=C(O)c1cccc(Cc2c(-c3ccccc3)[nH]c3cc(Br)ccc23)n1 [Example 16-38],36
4,"Cc1cc2[nH]c(-c3ccc(F)cc3)c(Cc3cccc(C(=O)O)n3)c2cc1F [Example 16-54, 6-[5-fluoro-2-(4-fluorophenyl)-6-methyl-1H-indol-3-ylmethyl]pyridine-2-carboxylic acid]",47
5,"O=C(O)c1cccc(Cc2c(-c3cccnc3)[nH]c3cc(C4CC4)ccc23)n1 [Example 16-67, 6-(6-cyclopropyl-2-pyridine-3-yl-1H-indol-3-ylmethyl)pyridine-2-carboxylic acid]",22
6,"Cc1cc2c(Cc3cccc(C(=O)O)n3)c(-c3ccsc3)[nH]c2cc1C1CC1 [Example 16-102, 6-(6-cyclopropyl-5-methyl-2-thiophen-3-yl-1H-indol-3-ylmethyl)pyridine-2-carboxylic acid]",49
7,"COc1cc2[nH]c(C(C)(C)C)c(Cc3cccc(C(=O)O)n3)c2cc1C [Example 16-98, 6-(2-tert-butyl-6-methoxy-5-methyl-1H-indol-3-ylmethyl)pyridine-2-carboxylic acid]",47
8,"Cc1cc2[nH]c(-c3cccnc3)c(Cc3cccc(C(=O)O)n3)c2cc1C [Example 16-58, 6-(5,6-dimethyl-2-pyridin-3-yl-1H-indol-3-ylmethyl)pyridine-2-carboxylic acid]",38
9,"COc1cc2[nH]c(C(C)(C)C)c(Cc3cccc(C(=O)O)n3)c2cc1F [Example 16-97, 6-(2-tert-butyl-5-fluoro-6-methoxy-1H-indol-3-ylmethyl)pyridine-2-carboxylic acid]",32
10,"COc1cc2[nH]c(C(C)C)c(Cc3cccc(C(=O)O)n3)c2cc1Cl [Example 16-109, 6-(5-chloro-2-isopropyl-6-methoxy-1H-indol-3-ylmethyl)pyridine-2-carboxylic acid]",35
11,"COc1ccc2c(Cc3cccc(C(=O)O)n3)c(-c3cncs3)[nH]c2c1 [Example 11-24, 6-(6-methoxy-2-thiazol-5-yl-1H-indol-3-ylmethyl)pyridine-2-carboxylic acid]",41
12,"Cc1cc2[nH]c(-c3ccsc3)c(Cc3cccc(C(=O)O)n3)c2cc1F [Example 16-56, 6-(5-fluoro-6-methyl-2-thiophen-3-yl-1H-indol-3-ylmethyl)pyridine-2-carboxylic acid]",39
13,"Cc1cc2c(Cc3cccc(C(=O)O)n3)c(-c3ccccc3)[nH]c2cc1Cl [Example 16-59, 6-(6-chloro-5-methyl-2-phenyl-1H-indol-3-ylmethyl)pyridine-2-carboxylic acid]",19
14,"COc1ccc2c(Cc3cccc(C(=O)O)n3)c(-c3cncc(F)c3)[nH]c2c1 [Example 16-11, 6-[2-(5-fluoropyridin-3-yl)-6-methoxy-1H-indol-3-ylmethyl]pyridine-2-carboxylic acid]",27
15,"Cc1cc2c(Cc3cccc(C(=O)O)n3)c(-c3ccsc3)[nH]c2cc1Cl [Example 16-92, 6-(6-chloro-5-methyl-2-thiophen-3-yl-1H-indol-3-ylmethyl)pyridine-2-carboxylic acid]",30
16,"COc1cc2c(Cc3cccc(C(=O)O)n3)c(-c3ccsc3)[nH]c2cc1Cl [Example 16-86, 6-(6-chloro-5-methoxy-2-thiophen-3-yl-1H-indol-3-ylmethyl)pyridine-2-carboxylic acid]",18
17,"Cc1ccc2c(Cc3cccc(C(=O)O)n3)c(-c3ccsc3)[nH]c2c1 [Example 16-21, 6-(6-methyl-2-thiophen-3-yl-1H-indol-3-ylmethyl)pyridine-2-carboxylic acid]",24
18,"COc1cc2c(Cc3cccc(C(=O)O)n3)c(-c3ccccc3)[nH]c2cc1C [Example 16-78, 6-(5-methoxy-6-methyl-2-phenyl-1H-indol-3-ylmethyl)pyridine-2-carboxylic acid]",24
19,"Cc1cc2[nH]c(-c3ccsc3)c(Cc3cccc(C(=O)O)n3)c2cc1C [Example 16-51, 6-(5,6-dimethyl-2-thiophen-3-yl-1H-indol-3-ylmethyl)pyridine-2-carboxylic acid]",14
